Source: patent US11235029B2, “Methods for treating heart failure with a TRKB agonist” (Temple University-Of The Commonwealth System of Higher …, priority 2017, dated 2022)

Columns and labels:
[1] = tested on: BDNF; assay: BDNF immunoblot of lysates from isolated control myocytes; format: cell-based
[2] = tested on: eNOS; assay: immunoblot of eNOS phosphorylated at serine 1177 in myocytes; format: cell-based; conditions: acute infusion, 100 nM
Source text: FIG. 8 depicts an immunoblot of eNOS phosphorylated at serine 1177 (^ser1177p-eNOS) and total eNOS (t-eNOS), taken from myocytes under control conditions (NS) and treated with LM22A-4.
Another possible mechanism of protection granted by TrkB stimulation is eNOS stimulation. […] Thus, it is plausible that TrkB agonists enhance eNOS signaling. FIG. 8 depicts an immunoblot of eNOS phosphorylated at serine 1177 (^ser1177p-eNOS) and total eNOS (t-eNOS), taken from myocytes under control conditions (NS) and treated with LM22A-4.

[3] = tested on: mice with myocardial infarction; assay: chronic infusion of TrkB agonist in mice with myocardial infarction (echocardiography, fibrosis, heart rate); format: in vivo
Method: FIG. 7, comprising FIG. 7A through FIG. 7C, depicts experimental results. FIG. 7A depicts rescue of cardiac defects following MI resulting from chronic infusion of LM22A-4, a specific agonist of TrkB (Massa S M, et a. J Clin Invest. 2010; 120:1774-85) at 0.2 mg/kg/day in saline, started 1 week after MI. […] FIG. 7B depicts cardiac tissue sections and quantitation of fibrosis observed in sham, MI, and MI+LM22A-4 groups. Compared to the MI group without treatment, fibrosis was lower in TrkB agonist-treated hearts.
FIG. 7A depicts rescue of cardiac defects following FIG. 7A depicts rescue of cardiac defects following MI resulting from chronic infusion of LM22A-4, a specific agonist of TrkB (Massa S M, et al. J Clin Invest. 2010; 120:1774-85), at 0.2 mg/kg/day in saline, started 1 week after MI.
Overall fibrosis was lower in TrkB agonist-treated hearts (FIG. 7B). FIG. 7B depicts cardiac tissue sections and quantitation of fibrosis observed in sham, MI, and MI+LM22A-4 groups. Compared to the MI group without treatment, fibrosis was lower in TrkB agonist-treated hearts.

[4] = 0.2 mg/kg/day in saline, chronic infusion started 1 week after MI, 4 weeks after severe MI

O=C(NCCO)c1cc(C(=O)NCCO)cc(C(=O)NCCO)c1 [LM22A-4, N,N′,N″-tris(2-hydroxyethyl)-1,3,5-benzenetricarboxamide]
myocardial BDNF (immunoblot) [1]: induced myocardial BDNF | eNOS activation by phosphorylation at serine 1177 [2]: activates eNOS | LVDs [3, 4]: 6.1±0.25 mm | ejection fraction (% EF) [3, 4]: 23.3±2.1% | fibrosis compared to the MI group without treatment ([3]; cardiac tissue sections, MI+LM22A-4 group): lower | heart rate ([3]; chronic infusion, MI mice): 494±17.8 bpm
